Measured values from patent US5633381A, “(Z,Z), (Z,E) and (E,Z) isomers of substituted bis(phenylmethylene)cycloketones” (Berlex Laboratories, Inc., priority 1994, dated 1997).
Structures can show the parent of a compound that is named as a salt.

Experiments:
Type in all cases: biochemical
[1] = system: citrated plasma clotting (activated partial thromboplastin time); test: Coagulation assay: activated partial thromboplastin time (APTT); conditions: human plasma, Actin Reagent, 37° C.
Description: (§1) There are a number of tests which illustrate the activity of the compounds of this invention. Due to the light sensitivity of the test Compounds, experiments were performed under minimally lighted conditions. The tests follow.
(§2) Two coagulation assays, the activated partial thromboplastin time (APTT) and the prothrombin time (PT), were used to evaluate the compounds. An Electra 900C coagulometer with the software package was used. The Actin Reagent (APTT) or Rabbit Brain Thromboplastin (PT) is added to citrated plasma sample in equal volumes (100 μL each) and allowed to incubate for 5 min. at 37° C. […] (100 μL) is added and time to clot noted. Dilution series for compounds undergoing testing were made in human plasma prior to assay.

thrombin (IIa) = thrombin (IIa) (Homo sapiens, UniProt P00734); test: Assay of free thrombin (IIa): initial rate of cleavage of peptide p-nitroanilide S2302; conditions: Tris-HCl pH 7.5, 300 μM S2302, 20 nM thrombin, room temperature
Description: (§3) There are a number of tests which illustrate the activity of the compounds of this invention. Due to the light sensitivity of the test Compounds, experiments were performed under minimally lighted conditions. The tests follow. ASSAY OF FREE FACTOR XA AND THROMBIN Activity of Factor Xa and thrombin (IIa) were determined as the initial rate of cleavage of peptide p-nitroanilide by the enzymes. […] Initial rate of the first 2 minutes was used for calculation of the enzyme activities.

human FXa = molecular target: T1, human FXa (Homo sapiens, UniProt P00742); test: In vitro plasma matrix effect on anti-FX activity (compounds diluted in 100% rat plasma); conditions: compound in 100% rat plasma, 30 min incubation, S2222, pH 7.5, room temperature, read-out: Ki (Xa)
T1 construct: 6 nM of human FXa; purchased Enzyme Research Lab; USA
Description: as §1
IN VITRO PLASMA MATRIX EFFECT ON ANTI-FX ACTIVITY:
Compound stock solutions (10 mM in DMSO) were diluted in 100% rat plasma in a series of 1 to 3 dilutions in the following concentration ranges: (1) from 300 μM to 1.23 μM; (2) from 10 μM to 0.041 μM; (3) from 100 μM to 0.412 μM. After 30 minutes incubation (in dark) at room temperature, 20 μL of diluted compounds (in rat plasma) were added in duplicate to a 96-well flat-bottom microtiter plate (Dynatech Laboratories, USA). Thirty microliter of assay buffer containing 50 mM Tris HCl, pH 7.5, […], and 0.1% polyethylene glycol 6000 was added to each sample well followed by 100 ul of 6 nM of human FXa (in assay buffer) (Enzyme Research Lab. USA). The plate was mixed in a plate shaker for about 30 seconds. The reaction was started by the addition of 50 ul of 656 uM of chromogenic substrate S2222 in assay buffer (Pharmacia Hepar Inc. USA). FXa activity was measured at […] at room temperature for five minutes at 10 seconds interval in a THERMOmax microtiter plate reader (Molecular Devices). An internal standard was assayed in parallel as control. Initial rate as mOD/min was determined using OD readings in the first two minutes of the reaction. IC50 values were determined with a 4-parameter curve fit program provided by the Molecular Devices' software, SOFTmax 2.32. Ki values were then calculated with the following equation: Ki=IC50 /(1+[S]/Km). […]

Factor Xa (HFXa) = Factor Xa (HFXa) (Homo sapiens, UniProt P00742); test: Assay of free Factor Xa: initial rate of cleavage of peptide p-nitroanilide S-2222; conditions: free FXa, Tris-HCl pH 7.5, 164 μM S-2222, 3 nM HFXa, room temperature
Description: as §3

[2] = system: citrated plasma clotting (prothrombin time); test: Coagulation assay: prothrombin time (PT); conditions: human plasma, Rabbit Brain Thromboplastin, 37° C.
Description: as §1, §2

Factor Xa (HFXa), sequence (P00742 235-488 limits assumed): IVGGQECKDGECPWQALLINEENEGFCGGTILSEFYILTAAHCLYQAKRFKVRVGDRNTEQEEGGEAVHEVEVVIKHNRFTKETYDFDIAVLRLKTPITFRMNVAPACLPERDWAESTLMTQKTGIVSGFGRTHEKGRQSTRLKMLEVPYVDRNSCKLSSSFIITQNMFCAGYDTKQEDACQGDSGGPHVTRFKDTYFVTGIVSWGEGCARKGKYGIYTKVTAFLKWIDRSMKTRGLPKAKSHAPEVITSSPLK
Factor Xa (HFXa), sequence (P00742 41-179 limits assumed): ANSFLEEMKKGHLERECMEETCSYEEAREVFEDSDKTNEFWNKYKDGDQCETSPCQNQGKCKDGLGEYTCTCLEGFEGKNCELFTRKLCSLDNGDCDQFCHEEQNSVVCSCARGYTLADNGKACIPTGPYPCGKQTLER
T1 sequence (P00742 235-488 limits assumed): as the sequence (P00742 235-488 limits assumed) above
T1 sequence (P00742 41-179 limits assumed): as the sequence (P00742 41-179 limits assumed) above

N=C(N)c1ccc(/C=C2\CCCC/C(=C\c3ccc(C(=N)N)cc3)C2=O)cc1 [EX. 1 E,E, E,E-1,3-bis[(4'-(amino(imino)methyl)phenyl)methylene]-2-oxocycloheptane, hydrochloride]
APTT: dose of compound required to produce a 2 fold increase in clot time [1]: 17.5 µg/mL | Ki (thrombin (IIa)): 6.2 ± 0.53 µM | Ki (human FXa): 27 ± 2.6 µM | Ki (Factor Xa (HFXa)): 16.5 ± 0.8 µM | PT: dose of compound required to produce a 2 fold increase in clot time [2]: > 30 µg/mL

N=C(N)c1ccc(/C=C2/CCCC/C(=C\c3ccc(C(=N)N)cc3)C2=O)cc1 [EX. 2 Z,E, Z,E-1,3-bis[(4'-(amino(imino)methyl)phenyl)methylene]-2-oxocycloheptane, trifluoroacetate]
APTT: dose of compound required to produce a 2 fold increase in clot time [1]: 1.6 µg/mL | Ki (thrombin (IIa)): 0.132 ± 0.002 µM | Ki (human FXa): 0.21 ± 0.034 µM | Ki (Factor Xa (HFXa)): 0.201 ± 0.057 µM | PT: dose of compound required to produce a 2 fold increase in clot time [2]: 3.2 µg/mL

N=C(N)c1ccc(/C=C2/CCCC/C(=C/c3ccc(C(=N)N)cc3)C2=O)cc1 [EX. 2 Z,Z, Z,Z-1,3-bis[(4'-(amino(imino)methyl)phenyl)methylene]-2-oxocycloheptane, trifluoroacetate]
APTT: dose of compound required to produce a 2 fold increase in clot time [1]: 0.3 µg/mL | Ki (thrombin (IIa)): 0.525 µM | Ki (human FXa): 0.00345 ± 7e-05 µM | Ki (Factor Xa (HFXa)): 0.00112 ± 0.00028 µM | PT: dose of compound required to produce a 2 fold increase in clot time [2]: 0.3 µg/mL

N=C(N)c1ccc(/C=C2\CCC/C(=C\c3ccc(C(=N)N)cc3)C2=O)cc1 [EX. 3 E,E, E,E-1,3-bis[(4'-(amino(imino)methyl)phenyl)methylene]-2-oxocyclohexane, phosphate]
Ki (thrombin (IIa)): 2.97 ± 0.48 µM | Ki (Factor Xa (HFXa)): 5.65 ± 0.35 µM

N=C(N)c1ccc(/C=C2/CCC/C(=C\c3ccc(C(=N)N)cc3)C2=O)cc1 [EX. 4 Z,E, Z,E-1,3-bis[(4'-(amino(imino)methyl)phenyl)methylene]-2-oxocyclohexane, trifluoroacetate]
Ki (thrombin (IIa)): 0.115 ± 0.071 µM | Ki (Factor Xa (HFXa)): 0.422 ± 0.167 µM

N=C(N)c1ccc(/C=C2/CCC/C(=C/c3ccc(C(=N)N)cc3)C2=O)cc1 [EX. 4 Z,Z, Z,Z-1,3-bis[(4'-(amino(imino)methyl)phenyl)methylene]-2-oxocyclohexane, trifluoroacetate]
Ki (thrombin (IIa)): 1.34 ± 0.37 µM | Ki (Factor Xa (HFXa)): 0.0289 ± 0.007 µM

N=C(N)c1ccc(/C=C2\CCCC/C(=C\c3ccc(C(N)=O)cc3)C2=O)cc1 [EX. 5 E,E, E,E-1-(4'-(amino(imino)methyl)phenyl)methylene-3-(4'-(aminocarbonyl)phenyl)methylene-2-oxocycloheptane, hydrochloride]
Ki (thrombin (IIa)): > 5 µM | Ki (Factor Xa (HFXa)): > 5 µM

N=C(N)c1ccc(C=C2CCCCC(=Cc3ccc(C(N)=O)cc3)C2=O)cc1 [EX. 6 Z,E:E,Z, Z,E/E,Z-1-(4'-(amino(imino)methyl)phenyl)methylene-3-(4'-(aminocarbonyl)phenyl)-methylene-2-oxocycloheptane, trifluoroacetate]
Ki (thrombin (IIa)): 0.38 µM | Ki (Factor Xa (HFXa)): 1.85 ± 0.01 µM

N=C(N)c1ccc(/C=C2/CCCC/C(=C/c3ccc(C(N)=O)cc3)C2=O)cc1 [EX. 6 Z,Z, Z,Z-1-(4'-(amino(imino)methyl)phenyl)methylene-3-(4'-(aminocarbonyl)phenyl)-methylene-2-oxocycloheptane, trifluoroacetate]
Ki (thrombin (IIa)): 0.107 ± 0.002 µM | Ki (Factor Xa (HFXa)): 0.0521 ± 0.0025 µM

CNC(=N)c1ccc(/C=C2\CCCC/C(=C\c3ccc(C(=N)N)cc3)C2=O)cc1 [EX. 7 E,E, E,E-1-(4'-(amino(imino)methyl)phenyl)methylene-3-(4'-(N'-methylamino-(imino)methyl)phenyl)methylene-2-oxocycloheptane, hydrochloride]
Ki (thrombin (IIa)): 12.9 µM | Ki (Factor Xa (HFXa)): 29 µM

CNC(=N)c1ccc(C=C2CCCCC(=Cc3ccc(C(=N)N)cc3)C2=O)cc1 [EX. 8 Z,E:E,Z, Z,E/E,Z-1-(4'-(amino(imino)methyl)phenyl)methylene-3-(4'-(N'-methylamino (imino)methyl)phenyl)methylene-2-oxocycloheptane, trifluoroacetate]
Ki (thrombin (IIa)): 0.363 ± 0.019 µM | Ki (Factor Xa (HFXa)): 0.504 ± 0.044 µM

C/N=C(\N)c1ccc(/C=C2/CCCC/C(=C/c3ccc(C(=N)N)cc3)C2=O)cc1 [EX. 8 Z,Z, Z,Z-1-(4'-(amino(imino)methyl)phenyl)methylene-3-(4'-(N'-methylamino-(imino)methyl)phenyl)methylene-2-oxocycloheptane, trifluoroacetate]
Ki (thrombin (IIa)): 1.58 ± 0.29 µM | Ki (Factor Xa (HFXa)): 0.0123 ± 0.0018 µM

CN(C)C(=N)c1ccc(/C=C2/CCCC/C(=C/c3ccc(C(=N)N)cc3)C2=O)cc1 [EX. 10 Z,Z, Z,Z-1-(4'-(amino(imino)methyl)phenyl)methylene-3-(4'-(N',N'-dimethylamino (imino)methyl)phenyl)methylene-2-oxocycloheptane]
Ki (thrombin (IIa)): 1.39 ± 0.14 µM | Ki (Factor Xa (HFXa)): 0.0178 ± 0.0026 µM

N=C(N)c1ccc(/C=C2/CC(C(=O)O)C/C(=C/c3ccc(C(=N)N)cc3)C2=O)cc1 (stereo not shown) [EX. 11 Z,Z, Z,Z-3,5-bis[(4'-(amino(imino)methyl)phenyl)methylene]-4-oxocyclohexanoic acid, trifluoroacetate]
Ki (thrombin (IIa)): 120 ± 7 µM | Ki (Factor Xa (HFXa)): 0.0291 ± 0.0058 µM

N=C(N)c1cccc(/C=C2\CCCC/C(=C\c3cccc(C(=N)N)c3)C2=O)c1 [EX. 12 E,E, E,E-1,3-bis[(3'-(amino(imino)methyl)phenyl)methylene]-2-oxocycloheptane, dihydrochloride]
Ki (thrombin (IIa)): 2.14 ± 0.15 µM | Ki (Factor Xa (HFXa)): 1.39 ± 0.21 µM

N=C(N)c1cccc(/C=C2/CCCC/C(=C\c3cccc(C(=N)N)c3)C2=O)c1 [EX. 13 Z,E, Z,E-1,3-bis[(3'-(amino(imino)methyl)phenyl)methylene]-2-oxocycloheptane, trifluoroacetate]
Ki (thrombin (IIa)): 1 ± 0.03 µM | Ki (Factor Xa (HFXa)): 0.143 ± 0.038 µM

N=C(N)c1cccc(/C=C2/CCCC/C(=C/c3cccc(C(=N)N)c3)C2=O)c1 [EX. 13 Z,Z, Z,Z-1,3-bis[(3'-(amino(imino)methyl)phenyl)methylene]-2-oxocycloheptane, trifluoroacetate]
Ki (thrombin (IIa)): 1.36 ± 0.5 µM | Ki (Factor Xa (HFXa)): 0.00563 ± 0.00197 µM

N=C(N)c1ccc(/C=C2/CCCCCCC/C(=C\c3ccc(C(=N)N)cc3)C2=O)cc1 [EX. 14 Z,E]
Ki (thrombin (IIa)): 0.146 ± 0.027 µM | Ki (Factor Xa (HFXa)): 0.509 ± 0.026 µM

N=C(N)c1ccc(/C=C2/CCCCCCC/C(=C/c3ccc(C(=N)N)cc3)C2=O)cc1 [EX. 14 Z,Z]
Ki (thrombin (IIa)): 0.741 ± 0.161 µM | Ki (Factor Xa (HFXa)): 0.111 ± 0.002 µM

N=C(N)c1ccc(/C=C2/CCCCC/C(=C\c3ccc(C(=N)N)cc3)C2=O)cc1 [EX. 15 Z,E, Z,E-1,3-bis[(4'-(amino(imino)methyl)phenyl)methylene]-2-oxocyclooctane]
Ki (thrombin (IIa)): 0.198 ± 0.018 µM | Ki (Factor Xa (HFXa)): 0.128 ± 0.025 µM

N=C(N)c1ccc(/C=C2/CCCCC/C(=C/c3ccc(C(=N)N)cc3)C2=O)cc1 [EX. 15 Z,Z, Z,Z-1,3-bis[(4'-(amino(imino)methyl)phenyl)methylene]-2-oxocyclooctane]
Ki (thrombin (IIa)): 0.619 ± 0.193 µM | Ki (Factor Xa (HFXa)): 0.0137 ± 0.0055 µM

N=C(N)c1ccc(/C=C2/CCCCCC/C(=C\c3ccc(C(=N)N)cc3)C2=O)cc1 [EX. 16 Z,E, Z,E-1,3-bis[(4'-(amino(imino)methyl)phenyl)methylene]-2-oxocyclononane]
Ki (thrombin (IIa)): 0.347 ± 0.035 µM | Ki (Factor Xa (HFXa)): 0.324 ± 0.048 µM

N=C(N)c1ccc(/C=C2/CCCCCC/C(=C/c3ccc(C(=N)N)cc3)C2=O)cc1 [EX. 16 Z,Z, Z,Z-1,3-bis[(4'-(amino(imino)methyl)phenyl)methylene]-2-oxocyclononane]
Ki (thrombin (IIa)): 0.527 ± 0.052 µM | Ki (Factor Xa (HFXa)): 0.006 ± 0.0028 µM
